Source: patent US11840531B2, “CDK8/19 inhibitors” (JOINT STOCK COMPANY “BIOCAD”, priority 2018, dated 2023)
Structures can show the parent of a compound that is named as a salt.

Assays:
[1] = Stability of the compounds in human blood plasma; type: in vitro ADME; conditions: pooled human blood plasma, 10 μM, 4 hours at 37° C.
Description: To assess the blood plasma stability of the compounds, we used pooled human blood plasma taken from ten healthy donors. The initial candidate solution (10 mM in DMSO) was diluted with pooled blood plasma to a concentration of 10 μm (test solution). The test solution was incubated in a dry block thermostat for 4 hours at 37° C. HPLC with Agilent 1200 liquid chromatography system (Agilent, USA) was employed to determine peak areas of the compounds in test samples, said peak areas corresponding to the initial test time (prior to incubation) and the final test time (after incubation in a dry block thermostat for 4 hours at 37° C.), proteins were preliminarily precipitated with acetonitrile. Chromatographic analysis was performed in a gradient elution regime with a flow rate of 1 mL/min Substance amount in % in a sample after thermostatting was determined.
The stability of the compounds was estimated. The compounds described herein show at least 90% chemical stability, i.e. they are chemically stable in human blood plasma (Table 2).

[2] = General cytotoxicity on HepG2 cells; type: cell-based; conditions: human, 72 h incubation
Description: The CC50 values were determined in the test for General cytotoxicity On HepG2 cells (hepatocellular carcinoma, ATCC® HB-8065™). Cells per well were seeded in 96-well plates (Corning, #3599) at a concentration ≈20×10^3 cells in 100 μL of medium and incubated for 72 h with added compounds within the range of concentrations of 200 to 0.78 μM. Cell viability was assessed using the above method.

CDK8/Cyclin C = CDK8/Cyclin C (Homo sapiens (Human), UniProt P49336); assay: LanthaScreen binding to recombinant CDK8/Cyclin C; conditions: TR-FRET, Tracer 236 10 nM, CDK8/Cyclin C 5 nM
Chain of CDK8/Cyclin C (P49336 whole entry): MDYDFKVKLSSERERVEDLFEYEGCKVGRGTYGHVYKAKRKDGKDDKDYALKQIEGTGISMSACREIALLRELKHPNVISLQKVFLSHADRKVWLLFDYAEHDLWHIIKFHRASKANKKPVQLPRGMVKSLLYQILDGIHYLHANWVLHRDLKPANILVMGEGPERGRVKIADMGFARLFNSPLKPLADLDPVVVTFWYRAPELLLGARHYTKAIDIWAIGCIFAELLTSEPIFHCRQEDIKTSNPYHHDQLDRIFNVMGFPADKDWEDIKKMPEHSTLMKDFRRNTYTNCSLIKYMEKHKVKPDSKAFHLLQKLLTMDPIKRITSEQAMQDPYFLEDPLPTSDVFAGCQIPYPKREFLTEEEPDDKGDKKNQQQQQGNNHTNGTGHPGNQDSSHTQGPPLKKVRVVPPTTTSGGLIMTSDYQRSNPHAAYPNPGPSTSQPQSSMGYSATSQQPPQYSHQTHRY
Chain of CDK8/Cyclin C (P24863 whole entry partner): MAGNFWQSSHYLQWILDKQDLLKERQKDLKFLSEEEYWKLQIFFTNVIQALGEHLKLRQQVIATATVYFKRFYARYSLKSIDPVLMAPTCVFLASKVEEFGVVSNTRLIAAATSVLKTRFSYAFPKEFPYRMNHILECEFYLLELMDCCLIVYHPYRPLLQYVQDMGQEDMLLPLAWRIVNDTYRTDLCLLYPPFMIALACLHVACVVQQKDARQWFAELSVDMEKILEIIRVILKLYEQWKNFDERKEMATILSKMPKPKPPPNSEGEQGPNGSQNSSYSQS
Description: Capability of compounds of the present invention to bind to CDK8 protein was detected using LanthaScreen (ThermoFisher) assay. We detected FRET signal proportional to the amount of CDK8-bound fluorescently-labeled ligand (Tracer 236) that competes with inhibitor for ATP binding site. We carried out the measurements in a 15 μl reaction volume using a 384-well plate (Corning, #CLS4513). Enzyme CDK8/Cyclin C (ThermoFisher, #PR7261B) was mixed with antibodies Anti-His-tag-Biotin (ThermoFisher, #PV6090), Streptavidin-Eu (ThermoFisher, #PV6025), the resulting mixture was added to plate wells (5 MKπ/well). Final concentrations of substances were as follows: CDK8/Cyclin C—5 nM, Streptavidin-Eu—3 nM, Anti-His-tag-Biotin—3 nM. Staurosporine (S4400, Sigma) was used as a reference inhibitor, and 0.1% solution of dimethyl sulphoxide (DMSO) in reaction buffer was used as a blank, the reaction buffer comprised 250 mM HEPES (pH 7.5), 50 mM MgCl2, 5 mM EGTA, and 0.05% Brij-35.
The inhibitors and controls in question were added to corresponding wells (5 μl/well). The plate was incubated at room temperature for 20 minutes. After incubating, 5 μl/well of tracer solution Alexa Fluor-647 (Kinase Tracer 236, ThermoFisher, #PV5592)) was added to the wells. Final concentration of tracer was 10 nM. Reaction buffer, instead of tracer solution, was used as a negative control. The plate was incubated for 40 minutes at 25° C., TR-FRET signal was then measured according to the manufacturer's guidelines on SPARK20 plate reader (Tecan, Switzerland), and the value was converted to the amount of kinase-bound tracer. IC50 values were calculated using SparkControl Magellan 1.2 software (Tecan, Switzerland) approximating experimental points by four-parameter logistic model with the optimization by Levenberg-Marquardt (Table 5).

MV4-11 cells = assay: Antiproliferative activity, MV4-11 cells (AlamarBlue); type: cell-based; conditions: Homo sapiens, 120 h incubation, read-out: MV-4-11 IC50
Description: (§1) Antiproliferative activity of CDK8 inhibitors according to the present invention was measured in a cell-based test on continuous cell cultures MV4-11 (biphenotypic myelomonocytic leukemia, ATCC® CRL-9591™), KG-1 (acute myeloid leukemia, ATCC® CCL-246™) using a vital stain AlamarBlue (ThermoFisher, #DAL1100). The cells were grown in RPMI-1640 (PanEco, #C330p) medium with addition of 10% FBS (Gibco, #16140-071); washed and resuspended in culture medium with 10% FBS (Gibco, #16140-071) in 96-well culture plates (Corning, #3599) with ≈10×10^3 cells in […] of medium per well. The compounds in question were dissolved in DMSO and diluted with a medium with 10% FBS (Gibco, #16140-071) to a final concentration ranging from 0 to 100 μM. […] of diluted compounds were then added to each well (final DMSO concentration was less than 1%) and incubated under 5% CO2 atmosphere at 37° C. for 120 h. After incubating, 15 μL/well of AlamarBlue (ThermoFisher, #DAL1100) reagent was added, contents of plates were mixed in an orbital shaker (Biosan, Latvia) and further incubated for 3-5 h at 37° C. under 5% CO2 atmosphere. Number of living cells was estimated using a microplate spectrophotometer (Tecan Infinite M200Pro, Switzerland) measuring fluorescent signal at the excitation wavelength (λEx) of 540 nm and emission wavelength (λEm) of 590 nm.
(§2) IC50 values were calculated using Magellan 7.2 software (Tecan, Switzerland) approximating experimental points by four-parameter logistic model with the optimization by Levenberg-Marquardt (Table 6).

KG-1 cells = assay: Antiproliferative activity, KG-1 cells (AlamarBlue); type: cell-based; conditions: 120 h incubation
Description: as §1, §2

Chemical stability in human blood plasma 4 h, % [1]	IC50 (CDK8/Cyclin C)	IC50 (MV4-11 cells)	Compound	CC50 at 72 h [2]	IC50 (KG-1 cells; Homo sapiens, KG-1, 120 h)	IC50 (KG-1 cells; dihydrochloride)
100.0%	1.4 nM	0.7 nM	CN1CCN(C(=O)Cn2cc(-c3ccc(-c4cnc(N)c5ncc(C(=O)NCC6CC6)cc45)cc3)cn2)CC1 [Compound 3.44, 8-amino-N-(cyclopropylmethyl)-5-(4-(1-(2-(4-methylpiperazin-1-yl)-2-oxoethyl)-1H-pyrazole-4-yl)phenyl)-1,7-naphthyridine-3-carboxamide]	65300 nM	0.7 nM	
	1.64 nM		CN1CCN(C(=O)c2cnc3c(N)ncc(-c4ccc(-c5cnn(CC(=O)N(C)C)c5)cc4)c3c2)CC1 [Compound 3.49 × 2HCl, 2-(4-(4-(8-amino-3-(4-methylpiperazine-1-carbonyl)-1,7-naphthyridine-5-yl)phenyl)-1H-pyrazole-1-yl)-N,N-dimethylacetamide dihydrochloride]			16 nM
	2.03 nM	3.8 nM	CN1CCN(C(=O)Cn2cc(-c3ccc(-c4cnc(N)c5ncc(C(=O)N6CCN(C)CC6)cc45)cc3)cn2)CC1 [Compound 3.50, 2-(4-(4-(8-amino-3-(4-methylpiperazine-1-carbonyl)-1,7-naphthyridine-5-yl)phenyl)-1H-pyrazole-1-yl)-1-(4-methylpiperazine-1yl)ethan-1-one]	> 100000 nM	26.6 nM	
	1.24 nM		COCCN(C)C(=O)c1cnc2c(N)ncc(-c3ccc(-c4cnn(CC(=O)N(C)C)c4)cc3)c2c1 [Compound 3.55]	> 100000 nM	6.5 nM	
	1.07 nM		COCCN(C)C(=O)c1cnc2c(N)ncc(-c3ccc(-c4cnn(CC(=O)N5CCN(C)CC5)c4)cc3)c2c1 [Compound 3.56, 8-amino-N-(2-methoxyethyl)-N-methyl-5-(4-(1-(2-(4-methylpiperazine-1-yl)-2-oxoethyl)-1H-pyrazole-4-yl)phenyl)-1,7-naphthyridine-3-carboxamide]	> 100000 nM	13.8 nM	
	2.27 nM		COCCN(C)C(=O)c1cnc2c(N)ncc(-c3ccc(-c4cnn(CCOC)c4)cc3)c2c1 [Compound 3.57, 8-amino-N-(2-methoxyethyl)-5-(4-(1-(2-methoxyethyl)-1H-pyrazole-4-yl)phenyl)-N-methyl-1,7-naphthyridine-3-carboxamide]	~90000 nM	17.1 nM	
